Among the data in BindingDB's records for doi:10.1021/bi7000505 (Wyeth Research, 2007) are Ki values, retold here.

This assay has as its target T1, Caspase-3 (Homo sapiens, UniProt P42574).
T1 sequence (P42574 whole entry): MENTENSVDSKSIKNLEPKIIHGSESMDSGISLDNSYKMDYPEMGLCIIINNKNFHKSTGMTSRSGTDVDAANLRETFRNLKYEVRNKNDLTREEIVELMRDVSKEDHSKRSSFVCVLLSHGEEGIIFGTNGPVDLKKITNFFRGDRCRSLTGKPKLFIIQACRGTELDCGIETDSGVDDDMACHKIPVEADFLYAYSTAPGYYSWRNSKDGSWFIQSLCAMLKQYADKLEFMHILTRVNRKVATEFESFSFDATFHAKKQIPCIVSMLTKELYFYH

With `O=C1C(=O)N(Cc2ccccc2)c2ccc(S(=O)(=O)N3CCC[C@H]3COc3ccccc3)cc21` [JMC522188 Compound 2], affinity was put at a Ki of 2.5 nM. Take `O=C1Nc2ccc(S(=O)(=O)N3CCC[C@H]3COc3cccnc3)cc2C1=O` [5-{[(2S)-2-[(pyridin-3-yloxy)methyl]pyrrolidine-1-]sulfonyl}-2,3-dihydro-1H-indole-2,3-dione]: the Ki was found to be 16.1 nM. In turn, `CN1C(=O)C(=O)c2cc(S(=O)(=O)N3CCC[C@H]3COc3ccccc3)ccc21` [(S)-1-Methyl-5-{1-[2-(phenoxymethyl)pyrrolidinyl]sulfonyl}isatin] registered a Ki of 11 nM. The same measure for `O=C(O)C[C@H](NC(=O)[C@@H](c1ccccc1)n1cccc(NC(=O)c2ccc3ccccc3c2)c1=O)C(=O)COc1ccccc1` [(3S)-3-[(1R)-1-[3-(naphthalene-2-amido)-2-oxo-1,2-dihydropyridin-1-yl]-1-phenylacetamido]-4-oxo-5-phenoxypentanoic acid]: 165 nM.
